The subject of data set [1] is T1, Adrenergic, Alpha 2, Non-selective.
T1 construct: other: Adrenergic, Alpha 2; 1.0E−6; average N=2
Briefly: Table 12 panel: Adrenergic, Alpha 2. It counts as binding. Particulars: Adrenergic, Alpha 2; 1.0E−6; average N=2.

Another data set has as its target Dopamine Transporter (Homo sapiens, UniProt Q01959). Briefly: Table 12 panel: Dopamine Transporter. The conditions noted are these: 1.0E−6, average N=2, read-out: percentage inhibition of specific binding. From the text: (§1) The percentage inhibition (average; N=2) for these receptors is shown below in Table 12.
(§2) Values in Table 12 are expressed as percentage inhibition of specific binding, and these values represent the average of replicate tubes at each of the concentrations tested.

In the next data set the test system is Dopamine, Non-selective. Kind of data set: Table 12 panel: Dopamine, Non-selective. Particulars: 1.0E−6, average N=2. In kind it is binding.
Excerpt: as §1, §2

Another data set deals with GABA A, Agonist Site. Kind of data set: Table 12 panel: GABA A, Agonist Site. In kind it is binding. The conditions noted are these: 1.0E−6, average N=2.
Excerpt: as §1, §2

Data set [2] has as its target GABA A, BDZ, alpha 1 site (Homo sapiens, UniProt P14867+P18507). Kind of data set: Table 12 panel: GABA A, BDZ. Particulars: 1.0E−6, average N=2, read-out: percentage inhibition of specific binding.
Excerpt: as §1, §2

The test system of another data set is Glutamate, AMPA Site. Briefly: Table 12 panel: Glutamate, AMPA. It counts as binding. The conditions noted are these: 1.0E−6, average N=2.
Excerpt: as §1, §2

The next data set concerns Melatonin, Non-selective. Briefly: Table 12 panel: Melatonin. In kind it is binding. The conditions noted are these: 1.0E−6, average N=2.
Excerpt: as §1, §2

In data set [3] the test system is Muscarinic, Non-selective, Central. Kind of data set: Table 12 panel: Muscarinic, Central. In kind it is binding. Particulars: 1.0E−6, average N=2.
Excerpt: as §1, §2

The test system of the next data set is Sigma, Non-selective. Kind of data set: Table 12 panel: Sigma. It counts as binding. Particulars: 1.0E−6, average N=2.
Excerpt: as §1, §2

Data set [4] has as its system Potassium Channel, Ca2+ Act., VI. Briefly: Table 12 panel: Potassium Channel, Ca2+ Act. It counts as binding. Particulars: 1.0E−6, average N=2.
Excerpt: as §1, §2

Data set [5] addresses Thyrotropin Releasing Hormone, TRH (Homo sapiens, UniProt P34981). Briefly: Table 12 panel: TRH. The conditions noted are these: 1.0E−6, average N=2, read-out: percentage inhibition of specific binding.
Excerpt: as §1, §2

The next data set deals with Neurokinin, NK3 (NKB) (Homo sapiens, UniProt P29371). Kind of data set: Table 12 panel: NK3. Particulars: 1.0E−6, average N=2, read-out: percentage inhibition of specific binding.
Chain of Neurokinin, NK3 (NKB) (P29371 whole entry): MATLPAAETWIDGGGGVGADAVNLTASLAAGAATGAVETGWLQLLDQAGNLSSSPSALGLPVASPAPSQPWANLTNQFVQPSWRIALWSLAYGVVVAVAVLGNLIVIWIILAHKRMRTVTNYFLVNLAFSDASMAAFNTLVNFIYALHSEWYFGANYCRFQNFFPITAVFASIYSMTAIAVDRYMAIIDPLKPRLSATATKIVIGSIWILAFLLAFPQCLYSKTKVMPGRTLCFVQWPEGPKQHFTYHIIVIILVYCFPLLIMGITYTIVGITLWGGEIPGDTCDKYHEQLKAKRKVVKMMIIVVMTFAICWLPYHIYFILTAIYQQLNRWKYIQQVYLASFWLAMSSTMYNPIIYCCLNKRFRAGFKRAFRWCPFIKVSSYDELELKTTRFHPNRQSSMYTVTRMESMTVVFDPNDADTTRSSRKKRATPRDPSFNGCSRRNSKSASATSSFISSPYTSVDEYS
Excerpt: as §1, §2

Data set [6] in a line: Plasma pharmacokinetics in dogs. Particulars: dog, 3 mg/kg. It counts as in vivo. From the text:
The following pharmacokinetic parameters are computed from the individual plasma concentrations of the modified antihistamine compound using a noncompartmental approach and appropriate validated pharmacokinetic software (e.g., WinNonlin Professional). Concentration values reported as BLQ are set to zero. If concentration data are available, interim calculations are done (non-QC.d data) between periods if possible.
Dose proportionality following study medication is explored by analyzing natural log-transformed pharmacokinetic variables AUC(0-t), AUC(0-inf), and Cmax with a linear model including the natural log-transformed dose as covariates. […] The following parameters were estimated: • Cmax Maximum plasma concentration. • Tmax Time to maximum concentration. • Cmax and Tmax were reported directly from the concentration-time data. • AUC0-T Area under the plasma concentration-time curve from time […] to the last time point with measurable concentrations, estimated bylinear trapezoidal rule. • AUC0-00 Area under the plasma concentration-time curve extrapolated to infinity, calculated using the formula: AUC0-00=AUC0-1+C0/λ0 • Where Ct is the last measurable concentration in plasma and λz is the terminal phase elimination rate constant estimated using log-linear regression during the terminal elimination phase. […]

The next data set has as its target T2, CYP 2C19 (Homo sapiens, UniProt P33261).
T2 construct: in a commercially available human microsomal preparation; purchased; host or cells: human microsomal preparation
Kind of data set: Cytochrome P450 inhibition: CYP 2C19. It counts as in vitro ADME. Particulars: human microsomal preparation. Here is the method:
Cytochrome P450 inhibition was studied with HY2901 in vitro. […] In addition, the in vitro rate of metabolism in rat, dog, monkey, and human hepatocyte cultures was determined for HY2901.

The next data set relates to telemetered Beagle dogs. Kind of data set: ECG and arterial blood pressure in telemetered Beagle dogs. In kind it is in vivo, dog. On the procedure: To determine if HY2901 could produce any changes in QT interval, the compound was studied in telemetered Beagle dogs. Dogs were implanted with devices to continuously monitor ECG and arterial blood pressure. Dogs (groups of 4) were studied in a Latin square cross-over design, with each dog receiving 3 different doses and a placebo. Two studies were conducted with doses of 0.3, 1, 3, 10, and 30 mg/kg. […] The tachycardia persisted for 6–8 hours postdose at 0.3 and 1 mg/kg. A ceiling effect to the heart rate increase seemed to exist with heart rates peaking at approximately 150–160 in both the 10 and 30 mg/kg dose groups.

Data set [7] can be described thus: 14-day rat study with recovery. It counts as in vivo. Particulars: both sexes, Crl:CD(SD)IGS BR, rat, in vivo, po. Here is the method:
(§3) The purpose of this study was to evaluate the toxicity of HY2901 when administered via oral gavage to rats for at least 14 days and to assess the reversibility, persistence, or delayed occurrence of any effects after a recovery period of up to 14 days.
(§4) Male and female Crl:CD®(SD)IGS BR rats were assigned to seven groups, four main study groups and three groups for toxicokinetics. Each group received dose preparations containing 0.25% methylcellulose, 400 cps in 200 mM acetate buffer, or 10, 30, or 150 mg of test article/kg of body weight (mg/kg/day) at a dose volume of 5 mL/kg.
(§5) Assessment of toxicity was based on mortality, clinical and ophthalmic observations, body weights, food consumption, clinical pathology, organ weights, and macroscopic and microscopic findings. Blood samples were collected for toxicokinetic evaluation.

In the next data set the test system is Crl:CD(SD)IGS BR rats. Briefly: 14-day rat study with recovery. In kind it is in vivo. On the procedure: as §3, §4, §5

Structures are written as SMILES.

Experimental findings from patent US7326721B2 (Hypnion, Inc., priority 2003, dated 2008) are described below.

The inhibition is the relative decrease from the control value, in per cent. The term half-life denotes how long it takes for the measured level to halve. What is called Tmax is the time from dosing to the highest level. For orientation: NOAEL means the highest dose or exposure tested at which no adverse effect was seen.

Chain of Dopamine Transporter (Q01959 whole entry): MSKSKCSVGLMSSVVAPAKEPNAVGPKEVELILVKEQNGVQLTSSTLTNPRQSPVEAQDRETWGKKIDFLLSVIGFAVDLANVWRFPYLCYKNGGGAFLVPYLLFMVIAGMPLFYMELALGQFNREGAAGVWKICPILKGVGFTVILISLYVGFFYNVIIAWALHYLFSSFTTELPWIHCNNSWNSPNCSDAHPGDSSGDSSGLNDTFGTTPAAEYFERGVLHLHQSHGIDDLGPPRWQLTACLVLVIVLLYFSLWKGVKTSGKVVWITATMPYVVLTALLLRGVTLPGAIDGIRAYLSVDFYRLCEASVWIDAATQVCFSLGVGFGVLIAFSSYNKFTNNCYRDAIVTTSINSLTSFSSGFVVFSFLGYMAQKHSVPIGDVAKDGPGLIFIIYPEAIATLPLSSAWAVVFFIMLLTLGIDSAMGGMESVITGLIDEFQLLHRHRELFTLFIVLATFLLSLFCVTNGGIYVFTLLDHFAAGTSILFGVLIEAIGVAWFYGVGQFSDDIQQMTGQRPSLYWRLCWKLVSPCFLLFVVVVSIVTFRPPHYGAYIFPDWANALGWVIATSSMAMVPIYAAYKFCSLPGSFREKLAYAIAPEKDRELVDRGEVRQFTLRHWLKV
Chain of Thyrotropin Releasing Hormone, TRH (P34981 whole entry): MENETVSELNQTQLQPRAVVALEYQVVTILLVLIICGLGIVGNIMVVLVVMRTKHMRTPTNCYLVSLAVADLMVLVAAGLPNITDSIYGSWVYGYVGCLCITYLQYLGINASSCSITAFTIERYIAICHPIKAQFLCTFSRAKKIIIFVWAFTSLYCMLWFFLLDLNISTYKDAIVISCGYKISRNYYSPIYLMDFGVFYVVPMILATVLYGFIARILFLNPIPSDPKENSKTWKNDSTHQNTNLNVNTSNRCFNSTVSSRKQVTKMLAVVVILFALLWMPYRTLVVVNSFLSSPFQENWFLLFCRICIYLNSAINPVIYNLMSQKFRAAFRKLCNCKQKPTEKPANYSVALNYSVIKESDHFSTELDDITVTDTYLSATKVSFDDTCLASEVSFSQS
T2 sequence (P33261 whole entry): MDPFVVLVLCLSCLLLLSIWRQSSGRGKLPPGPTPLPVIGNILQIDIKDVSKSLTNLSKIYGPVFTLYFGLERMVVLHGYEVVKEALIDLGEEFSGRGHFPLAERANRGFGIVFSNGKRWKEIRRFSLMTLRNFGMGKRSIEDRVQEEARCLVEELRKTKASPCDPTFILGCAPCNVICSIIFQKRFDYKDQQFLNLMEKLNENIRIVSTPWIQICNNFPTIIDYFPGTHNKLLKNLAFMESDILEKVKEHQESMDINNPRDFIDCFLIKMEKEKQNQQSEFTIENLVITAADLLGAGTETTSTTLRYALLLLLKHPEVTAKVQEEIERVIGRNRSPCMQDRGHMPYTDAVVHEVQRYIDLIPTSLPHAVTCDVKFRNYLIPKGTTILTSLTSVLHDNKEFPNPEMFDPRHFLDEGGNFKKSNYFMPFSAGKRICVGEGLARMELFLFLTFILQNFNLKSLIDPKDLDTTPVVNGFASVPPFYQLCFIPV
Chain of GABA A, BDZ, alpha 1 site (P14867 28-456): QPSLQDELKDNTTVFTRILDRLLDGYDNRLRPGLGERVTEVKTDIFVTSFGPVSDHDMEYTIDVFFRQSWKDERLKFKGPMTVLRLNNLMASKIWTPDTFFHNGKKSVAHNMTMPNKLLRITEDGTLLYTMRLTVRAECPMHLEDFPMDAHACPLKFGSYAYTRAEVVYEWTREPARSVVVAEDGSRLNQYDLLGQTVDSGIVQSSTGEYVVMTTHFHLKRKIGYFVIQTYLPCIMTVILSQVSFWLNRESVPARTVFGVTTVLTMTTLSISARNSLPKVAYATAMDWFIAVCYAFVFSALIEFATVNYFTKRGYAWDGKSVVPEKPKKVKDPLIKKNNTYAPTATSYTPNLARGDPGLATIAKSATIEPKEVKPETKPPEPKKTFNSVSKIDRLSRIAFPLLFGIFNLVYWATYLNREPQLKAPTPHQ
Chain of GABA A, BDZ, alpha 1 site (P18507 40-467 limits assumed): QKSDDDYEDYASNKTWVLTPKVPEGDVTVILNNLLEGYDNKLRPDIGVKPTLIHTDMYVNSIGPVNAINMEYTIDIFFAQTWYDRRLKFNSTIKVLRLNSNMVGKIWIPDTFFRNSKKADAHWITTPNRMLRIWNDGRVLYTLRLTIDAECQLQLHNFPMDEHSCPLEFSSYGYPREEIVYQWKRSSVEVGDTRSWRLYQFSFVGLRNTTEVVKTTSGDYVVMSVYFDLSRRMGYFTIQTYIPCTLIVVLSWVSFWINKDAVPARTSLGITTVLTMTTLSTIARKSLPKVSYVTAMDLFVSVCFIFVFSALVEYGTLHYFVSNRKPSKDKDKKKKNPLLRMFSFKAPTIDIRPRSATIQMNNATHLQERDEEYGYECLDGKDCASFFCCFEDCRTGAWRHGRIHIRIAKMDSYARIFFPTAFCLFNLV
Chain of GABA A, BDZ, alpha 1 site (P47870 25-512 partner limits assumed): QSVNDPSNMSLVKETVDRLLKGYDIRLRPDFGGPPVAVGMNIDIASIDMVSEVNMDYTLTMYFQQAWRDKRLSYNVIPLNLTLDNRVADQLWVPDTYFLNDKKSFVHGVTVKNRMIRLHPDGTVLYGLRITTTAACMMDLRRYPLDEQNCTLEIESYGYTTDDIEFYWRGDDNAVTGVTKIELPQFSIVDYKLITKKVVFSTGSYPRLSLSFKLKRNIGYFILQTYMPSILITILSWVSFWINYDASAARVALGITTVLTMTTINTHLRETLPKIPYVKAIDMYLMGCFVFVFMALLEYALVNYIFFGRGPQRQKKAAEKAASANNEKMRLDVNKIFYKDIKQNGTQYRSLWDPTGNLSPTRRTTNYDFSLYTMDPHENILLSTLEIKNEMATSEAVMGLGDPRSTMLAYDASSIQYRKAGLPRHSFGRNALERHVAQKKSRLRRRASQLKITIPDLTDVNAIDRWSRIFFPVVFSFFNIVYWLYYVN

With `CC(CC(=O)O)N1CCC(=C2c3ccc(F)cc3COc3ccccc32)CC1` (centres unmarked) [Compound 37], the “percentage inhibition of specific binding” value is −3.79% in data set [1]; 21.10% in the data set on Dopamine, Non-selective; 20.18% in the data set on GABA A, Agonist Site; 3.59% in the data set on Glutamate, AMPA Site; 11.29% with Melatonin, Non-selective; 12.84% in data set [3]. For the same compound, the “percentage inhibition of specific binding” value is 13.27% in the data set on Sigma, Non-selective and −12.71% ^ in data set [4]. Also, the inhibition at 1 µM was 2.14% at Dopamine Transporter; -7.13% in [2]; -2.98% in [5]; -0.23% on Neurokinin, NK3 (NKB).

Turning to `CC(C)(CN1CCC(=C2c3ccc(F)cc3COc3ccccc32)CC1)C(=O)O` [Compound 49a], the half-life in data set [6] is 4.2 h. In addition, the time to peak (Tmax) in [6] (after oral administration) came to 0.5 h. For the same compound, the “inhibition of CYP 2C19 activity” value on CYP 2C19 is reported as “did not inhibit”. For the same compound, in the data set on telemetered Beagle dogs (0.3 and 1 mg/kg), the “persistence of tachycardia postdose” value was in the range of 6 to 8 h. In the data set on telemetered Beagle dogs (10 and 30 mg/kg dose groups), the peak heart rate is on record as 150–160. Moreover, the “QT or corrected QT interval” value in the data set with telemetered Beagle dogs (doses of 0.3, 1, 3, 10, and 30 mg/kg) is given as “no changes in QT or corrected QT interval at any dose”. Besides, the heart rate effect result in the data set on telemetered Beagle dogs (doses of 0.3 to 30 mg/kg, intravenous or oral) was “dose-related sinus tachycardia”. Besides, the persistence of tachycardia in the data set on telemetered Beagle dogs (higher doses) is 10 to 12 h. Also, in the data set with telemetered Beagle dogs (paralleled the tachycardia), the blood pressure entry is “slight increase in blood pressure”. Further, the no observed adverse effect level (NOAEL) at 14 days in data set [7] came to 30 mg/kg/day. Moreover, the mean body weight entry in the data set with Crl:CD(SD)IGS BR rats (150 mg/kg/day males) is reported as “depression in mean body weight of the 150 mg/kg/day males”. Moreover, in the data set with Crl:CD(SD)IGS BR rats (150 mg/kg/day males, terminal sacrifice), the “mean weights of thymus, lung, and heart” value is “significantly low relative to brain weight”. For the same compound, in the data set on Crl:CD(SD)IGS BR rats (150 mg/kg/day, Week 1), the food consumption entry was “depression in food consumption in 150 mg/kg/day rats in Week 1”. Besides, the “expected pharmacological effects (clinical signs)” value with Crl:CD(SD)IGS BR rats (10, 30, or 150 mg/kg/day) was “hypoactivity, ataxia, and the appearance of sleep, were commonly observed”. Besides, the unscheduled deaths entry in the data set on Crl:CD(SD)IGS BR rats (10, 30, or 150 mg/kg/day, 14 days) was “largely restricted to the 150 mg/kg/day groups”. In the data set with Crl:CD(SD)IGS BR rats (all groups), the ophthalmic observations entry was “No ophthalmic lesions”. Moreover, in the data set with Crl:CD(SD)IGS BR rats (rat, in vivo), the clinical pathology findings entry is reported as “unrelated to treatment”; the “increases in Cmax and AUC(0-t) with dose” value is “greater than dose proportional”. In the data set with Crl:CD(SD)IGS BR rats (rats), the “accumulation after multiple dosing” value was “Minimum accumulation”. For the same compound, the “macroscopic and microscopic findings” value in the data set with Crl:CD(SD)IGS BR rats (terminal and recovery sacrifice rats) is “No treatment-related macroscopic observations or microscopic toxic effects”.
